Measured values: patent US8288416B2, “Substituted piperidinophenyl oxazolidinones” (Wockhardt Ltd., priority 2006, dated 2012)
Where a name gives a salt, the structure may show the parent alone. Read-outs that look alike come from different tables or passages of the source.

Tests used:
Aqueous solubility = format: physicochemical; settings: for solubility: aqueous
[1] = pH 7, aqueous buffer, pH 7, read-out: Aqueous solubility at pH 7

COCC1(C(=O)[C@H](C)NC(=O)OC(C)(C)C)CCN(c2c(F)cc(N3C[C@H](CNC(C)=O)OC3=O)cc2F)CC1 [Example 13, (S)—N-{3-[3,5-difluoro-4-(4-(S)-2-tert-butoxycarbonylamino-propionyl-4-methoxymethyl-piperidine-1-yl)phenyl]-2-oxo-oxazolidin-5-ylmethyl}-acetamide]
Aqueous solubility at pH 7 (Aqueous solubility; pH 7): > 100 mg/ml

COCC1(OC(=O)C(N)C(C)C)CCN(c2c(F)cc(N3C[C@H](CNC(C)=O)OC3=O)cc2F)CC1.CS(=O)(=O)O (stereo partly drawn) [Example 17, 2-Amino-3,3-dimethylpropionic acid 1-{4-[(S)-5-(acetylamino-methyl)-2-oxo-oxazolidin-3-yl]-2,6-difluorophenyl}-4-methoxymethyl-piperidin-4-yl ester methane sulfonic acid salt]
solubility (Aqueous solubility; pH 7, aqueous buffer, read-out: Aqueous solubility at pH 7): > 100 mg/mL

COCC1(OC(=O)CN)CCN(c2c(F)cc(N3C[C@H](CNC(C)=O)OC3=O)cc2F)CC1.O=C(O)C(F)(F)F [Example 12, 2-Amino-acetic acid 1-{4-[(S)-5-(acetylamino-methyl)-2-oxo-oxazolidin-3-yl]-2,6-difluorophenyl}-4-methoxymethyl-piperidin-4-yl ester triflouroacetic acid salt]
Aqueous solubility at pH 7 (Aqueous solubility; pH 7): > 100 mg/ml

COCC1(OP(=O)(O)O)CCN(c2c(F)cc(N3C[C@H](CNC(C)=O)OC3=O)cc2F)CC1 [Example 6, Phosphoric acid mono-(1-{4-[(S)-5-(acetylamino-methyl)-2-oxo-oxazolidin-3-yl]-2,6-difluoro-phenyl}-4-methoxymethyl-piperidin-4-yl)ester magnesium salt]
Aqueous solubility at pH 7 (Aqueous solubility; pH 7): ~2 mg/ml

COCC1(OP(=O)([O-])[O-])CCN(c2c(F)cc(N3C[C@H](CNC(C)=O)OC3=O)cc2F)CC1.[Ca+2] [Example 7, Phosphoric acid mono-(1-{4-[(S)-5-(acetylamino-methyl)-2-oxo-oxazolidin-3-yl]-2,6-difluoro-phenyl}-4-methoxymethyl-piperidin-4-yl)ester calcium salt]
solubility (Aqueous solubility; [1]): ~0.5 mg/mL

COCC1(OP(=O)(O)O)CCN(c2c(F)cc(N3C[C@H](CNC(C)=O)OC3=O)cc2F)CC1 [Example 5, Phosphoric acid mono-(1-{4-[(S)-5-(acetylamino-methyl)-2-oxo-oxazolidin-3-yl]-2,6-difluoro-phenyl}-4-methoxymethyl-piperidin-4-yl)ester di potassium salt]
Aqueous solubility at pH 7 (Aqueous solubility; pH 7, di potassium salt): > 200 mg/ml

COCC1(C(=O)[C@@H](NC(=O)OCc2ccccc2)C(C)C)CCN(c2c(F)cc(N3C[C@H](CNC(C)=O)OC3=O)cc2F)CC1 [Example 16, (S)—N-{3-[3,5-Difluoro-4-(4-(S)-2-carbobenzyloxyamino-3,3-dimethylpropionyl-4-methoxymethyl-piperidine-1-yl)phenyl]-2-oxo-oxazolidin-5-ylmethyl}-acetamide]
Aqueous solubility at pH 7 (Aqueous solubility; pH 7): > 100 mg/ml

COCC1(OP(=O)(O)O)CCN(c2c(F)cc(N3C[C@H](CNC(C)=O)OC3=O)cc2F)CC1 [Example 3, Phosphoric acid mono-(1-{4-[(S)-5-(acetylamino-methyl)-2-oxo-oxazolidin-3-yl]-2,6-difluorophenyl}-4-methoxymethyl-piperidin-4-yl)ester]
solubility (Aqueous solubility; pH not stated, read-out: Aqueous solubility): > 200 mg/mL
melting point: > 140 °C

COCC1(OC(=O)C(C)N)CCN(c2c(F)cc(N3C[C@H](CNC(C)=O)OC3=O)cc2F)CC1.O=C(O)C(F)(F)F (stereo partly drawn) [Example 15, 2-Amino-propionic acid 1-{4-[(S)-5-(acetylamino-methyl)-2-oxo-oxazolidin-3-yl]-2,6-difluorophenyl}-4-methoxymethyl-piperidin-4-yl ester triflouroacetic acid salt]
Aqueous solubility at pH 7 (Aqueous solubility; pH 7): > 100 mg/ml

COCC1(OC(=O)CN)CCN(c2c(F)cc(N3C[C@H](CNC(C)=O)OC3=O)cc2F)CC1.Cl [Example 11, 2-Amino-acetic acid 1-{4-[(S)-5-(acetylamino-methyl)-2-oxo-oxazolidin-3-yl]-2,6-difluorophenyl}-4-methoxymethyl-piperidin-4-yl ester hydrochloride salt]
solubility (Aqueous solubility; [1]): > 100 mg/mL

COCC1(OC(=O)C(C)N)CCN(c2c(F)cc(N3C[C@H](CNC(C)=O)OC3=O)cc2F)CC1.Cl (stereo partly drawn) [Example 14, 2-Amino-propionic acid 1-{4-[(S)-5-(acetylamino-methyl)-2-oxo-oxazolidin-3-yl]-2,6-difluorophenyl}-4-methoxymethyl-piperidin-4-yl ester hydrochloride salt]
solubility (Aqueous solubility; [1]): > 100 mg/mL

COCC1(OP(=O)(O)O)CCN(c2c(F)cc(N3C[C@H](CNC(C)=O)OC3=O)cc2F)CC1 [Example 4, Phosphoric acid mono-(1-{4-[(S)-5-(acetylamino-methyl)-2-oxo-oxazolidin-3-yl]-2,6-difluoro-phenyl}-4-methoxymethyl-piperidin-4-yl)ester di sodium salt]
Aqueous solubility at pH 7 (Aqueous solubility; pH 7, di sodium salt): > 200 mg/ml
